These results are taken from patent US20260027068A1, “METHODS OF ADM[…]-KETAMINE” (Perception Neuroscience, Inc., priority 2022, published 2026).

Data set [1] relates to mouse model of morphine addiction. As to the kind of experiment: Mouse model of morphine addiction. The data set is classed as in vivo. Conditions: co-administered to mice.
The subject of a further data set is rats. As to the kind of experiment: Alcohol tolerance. It counts as in vivo.
A further data set concerns the target T1, CYP2B6 (Homo sapiens, UniProt P20813).
T1 sequence (P20813 1-491): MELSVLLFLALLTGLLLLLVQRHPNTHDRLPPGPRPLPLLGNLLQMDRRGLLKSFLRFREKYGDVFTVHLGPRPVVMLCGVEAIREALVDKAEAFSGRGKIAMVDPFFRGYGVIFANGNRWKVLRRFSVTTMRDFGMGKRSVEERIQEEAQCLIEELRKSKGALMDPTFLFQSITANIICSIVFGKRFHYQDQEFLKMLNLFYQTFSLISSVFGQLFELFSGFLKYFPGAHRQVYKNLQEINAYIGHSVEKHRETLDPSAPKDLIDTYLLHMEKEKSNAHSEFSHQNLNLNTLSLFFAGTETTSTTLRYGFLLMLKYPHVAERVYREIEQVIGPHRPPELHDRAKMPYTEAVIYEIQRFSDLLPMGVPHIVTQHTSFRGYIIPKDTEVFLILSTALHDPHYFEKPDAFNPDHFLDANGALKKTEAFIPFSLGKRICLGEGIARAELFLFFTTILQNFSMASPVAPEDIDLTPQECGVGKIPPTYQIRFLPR
Conditions: in vitro.

For data set [2], the system named is phencyclidine site of the N-methyl-D-aspartate (NMDA) receptor. Particulars: compared with racemic ketamine or S(+)-ketamine; cited from earlier work.
The next data set concerns sigma receptor. Particulars: cited from earlier work.
The conditions of data set [3]: in vivo; cited from earlier work.
The subject of the next data set is CYP3A4. As to the kind of experiment: In vitro CYP induction.
The target of another data set is CYP2C19 (Homo sapiens, UniProt P33261). As to the kind of experiment: In vitro CYP inhibition.
CYP2C19, sequence (P33261 whole entry, canonical isoform): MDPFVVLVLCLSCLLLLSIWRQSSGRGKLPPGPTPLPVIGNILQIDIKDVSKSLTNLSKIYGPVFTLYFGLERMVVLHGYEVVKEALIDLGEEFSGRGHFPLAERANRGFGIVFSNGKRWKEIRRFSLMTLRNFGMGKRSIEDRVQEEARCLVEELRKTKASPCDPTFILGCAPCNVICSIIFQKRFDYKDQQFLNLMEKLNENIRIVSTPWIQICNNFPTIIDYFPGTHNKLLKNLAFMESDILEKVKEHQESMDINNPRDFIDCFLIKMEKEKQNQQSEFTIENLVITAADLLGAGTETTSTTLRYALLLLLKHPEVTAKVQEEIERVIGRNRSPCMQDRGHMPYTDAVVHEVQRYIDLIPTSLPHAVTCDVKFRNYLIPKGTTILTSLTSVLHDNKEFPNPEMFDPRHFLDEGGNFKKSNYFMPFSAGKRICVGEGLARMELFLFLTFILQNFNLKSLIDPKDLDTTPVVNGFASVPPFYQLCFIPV
For data set [4], the system named is cytochrome P450 (CYP) isoforms. As to the kind of experiment: In vitro drug metabolism: CYP isoforms involved.

In the case of `CN[C@@]1(c2ccccc2Cl)CCCCC1=O.Cl` [R(−)-ketamine, (2R)-2-(2-chlorophenyl)-2-(methylamino)cyclohexan-1-one], the “Effect on the addictive properties of morphine” value in data set [1] is listed as “significantly attenuated the addictive properties of morphine”. Further, the “Effect on alcohol tolerance” value in the data set with rats was “mitigated the effects of alcohol tolerance”. Also, the CYP2B6 inhibition entry at CYP2B6 was “inhibitor”. Also, in [2], the “Lower affinity to the NMDA receptor” value is recorded as 4 fold. For the same molecule, in the data set with sigma receptor, the “Higher affinity to the sigma receptor compared with S(+)-ketamine” value was 15 fold. The “Side effects (hyperlocomotion, prepulse inhibition deficit, drug dependence)” value in [3] is reported as “did not”. In the data set on CYP3A4, the CYP3A4 induction result was “inducer”. The CYP2C19 inhibition result on CYP2C19 is listed as “inhibitor”. Also, the “CYP isoforms involved in the metabolism” value in data set [4] was “primarily CYP2B6, CYP3A4/5, and CYP2C19”.
